The record followed here is ChEMBL document CHEMBL4052794, “Design, synthesis, docking and biological evaluation of 4-phenyl-thiazole derivatives as autotaxin (ATX) inhibitors” (Bioorg Med Chem Lett, 2017).

Some results are limits rather than exact numbers.

The target in assay [1] is T1, Autotaxin (Homo sapiens, UniProt Q13822). The experiment in a line: Inhibition of human ATX using FS-3 as substrate measured every 5 mins for 30 mins by fluorescence assay.
The target of assay [2] is T1, Autotaxin. Briefly: Inhibition of ATX in human plasma using LPC as substrate pretreated for 15 mins followed by substrate addition measured after 3 hrs by LC-MS/MS analysis.

Compound `O=C(Nc1cccc(Nc2nc(-c3ccc(O)c(O)c3)cs2)c1)OCc1ccccc1` returned an IC50 against Autotaxin [1] of 9.43 µM. On Autotaxin [1], `O=C(NC1CCN(C(=O)OCc2cc(Cl)cc(Cl)c2)CC1)c1nc(-c2ccc(Cl)cc2)cs1` registered a concentration for half-maximal inhibition (IC50) of 0.0633 µM. On the same count and under the same terms, the result for `O=C(NC1CCN(C(=O)OCc2ccccc2)CC1)c1nc(-c2ccc(CP(=O)(O)O)cc2)cs1` reads 0.0137 µM. Regarding `NS(=O)(=O)c1cc(-c2csc(NC3CCN(C(=O)OCc4ccccc4)C3)n2)ccc1Cl` (configuration not stated), half-maximal inhibition against Autotaxin [1] (IC50) required 1.34 µM. On Autotaxin [1], `NC(=O)c1cc(-c2csc(NC3CCN(C(=O)OCc4ccccc4)C3)n2)ccc1O` (configuration not stated) displayed a 50% inhibitory concentration (IC50) of 4.47 µM. `CN(c1ccc(S(N)(=O)=O)cc1)c1nc(-c2ccc(O)c(CO)c2)cs1` showed an IC50 on Autotaxin [1] of 5.82 µM. The compound `CN(c1ccc(S(N)(=O)=O)cc1)c1nc(-c2ccc(O)c(C(N)=O)c2)cs1` displayed an IC50 against Autotaxin [1] of 6.57 µM. Regarding `CS(=O)(=O)Nc1ccc(-c2csc(N(Cc3ccccn3)c3ccc4nn[nH]c4c3)n2)cc1`, at Autotaxin [1], the IC50 was 2.57 µM.

On to `CS(=O)(=O)Nc1cccc(-c2csc(NC3CCN(C(=O)OCc4cc(Cl)cc(Cl)c4)CC3)n2)c1`, for which the half-maximal inhibitory concentration (IC50) at Autotaxin [1] is > 0.1 µM. The same measure, in the same setting: the result for `O=C(OCc1ccccc1)N1CCC(Nc2nc(-c3ccc(CP(=O)(O)O)cc3)cs2)C1` (configuration not stated) reads 0.0103 µM; that for `CN(c1ccc(S(N)(=O)=O)cc1)c1nc(-c2ccc(O)c(C(=O)O)c2)cs1`, 10.6 µM; that for `NS(=O)(=O)c1cc(-c2csc(C(=O)NC3CCN(C(=O)OCc4ccccc4)CC3)n2)ccc1Cl`, 0.505 µM. Regarding `NS(=O)(=O)c1cc(-c2csc(C(=O)NCc3ccc(Cl)cc3)n2)ccc1Cl`, the midpoint of inhibition at Autotaxin [1], the IC50, lay at 2.11 µM. As for `O=C(NC1CCN(C(=O)OCc2cc(Cl)cc(Cl)c2)CC1)c1nc(-c2ccc(CP(=O)(O)O)cc2)cs1`, the values for the IC50 at Autotaxin [2] and against Autotaxin [1] were 0.015 µM and 0.00219 µM, respectively. `O=S(=O)(Cc1cccc(Nc2nc(-c3ccc(O)c(O)c3)cs2)c1)NCc1ccccc1` gave a concentration for half-maximal inhibition (IC50) on Autotaxin [1] of 11.6 µM. As to `NS(=O)(=O)c1cc(-c2csc(NC3CCN(C(=O)OCc4ccccc4)CC3)n2)ccc1Cl`, half-maximal inhibition against Autotaxin [1] (IC50) was put at 1.3 µM. On the same count and under the same terms, under `CN(c1ccc2c(c1)CS(=O)(=O)N2)c1nc(-c2ccc(O)c(C(=O)O)c2)cs1` stands > 10 µM; under `NS(=O)(=O)c1cc(-c2csc(C(=O)Nc3cccc(C(=O)O)c3)n2)ccc1Cl`, 10.5 µM. The same measure, in the same setting: the result for `O=C(OCc1ccccc1)N1CCC(Nc2nc(-c3ccc(CP(=O)(O)O)cc3)cs2)CC1` reads 0.0759 µM; that for `O=C(Cc1cccc(Nc2nc(-c3ccc(O)c(O)c3)cs2)c1)NCc1ccccc1`, 8.06 µM. On Autotaxin [1], `O=C(OCc1ccccc1)N1CCC(Nc2nc(-c3ccc(O)c(O)c3)cs2)C1` (configuration not stated) displayed a half-inhibitory concentration (IC50) of 1.23 µM.

Turning to `O=C(O)c1cc(-c2csc(NC3CCN(C(=O)OCc4ccccc4)C3)n2)ccc1O` (configuration not stated), it took 10.9 µM to reach half-maximal inhibition against Autotaxin [1] (IC50). Turning to `CS(=O)(=O)Nc1ccc(-c2csc(C(=O)NC3CCN(C(=O)OCc4cc(Cl)cc(Cl)c4)CC3)n2)cc1`, the figures for the half-maximal inhibitory concentration (IC50) at Autotaxin [2] and at Autotaxin [1] were 0.735 µM and 0.00299 µM, respectively. Turning to `COc1ccc(-c2csc(C(=O)NC3CCN(C(=O)OCc4cc(Cl)cc(Cl)c4)CC3)n2)cc1`, at Autotaxin [1], half-maximal inhibition (IC50) was put at 0.0303 µM.

In turn, `NS(=O)(=O)c1cc(-c2csc(C(=O)NC3CCN(C(=O)OCc4cc(Cl)cc(Cl)c4)CC3)n2)ccc1Cl` gave a concentration for half-maximal inhibition (IC50) at Autotaxin [1] of 0.00447 µM.

In general, IC50 refers to the concentration at which inhibition is half-maximal.
